Source: patent publication US4381304A, “4,9-Dihydro-4,9-dioxo-1H-cyclohepta[b]pyridine derivatives” (Ayerst, McKenna & Harrison, Inc., priority 1981, dated 1983)
Read-outs that look alike come from different tables or passages of the source.

Legend:
[1] = stability of the salt in the presence of acid; assay type: physicochemical
Method: A mixture of 3-{[N-(methoxycarbonylmethyl)-N-methylamino]carbonyl}-4,9-dihydro-4,9-dioxo-1H-cyclohepta[b]pyridine-1-acetic acid ethyl ester (2.36 g, described in example 6) and 2% aqueous sodium hydroxide (w/v, 25 ml) was stirred at 25° C. for 4 hr. Evaporation of the reaction mixture gave the title disodium salt. […] The salt had mp>250° C.; nmr (D2 O) δ3.0 (d, 3H), 4.0 (d, 2H), 4.7 (s, 2H), 6.8-8.3 (m, 5H); ir (Nujol*) 3400, 3150, 1610 cm^-1 (with inflections at 1625 and 1585 cm^-1); uv λ max (MeOH) 340 nm (ε7,390), 237 (13,000); Anal Calcd for C16 H12 N2 O7 Na2.3H2 O: C, 43.24% H, 4.08% […]; Found: C, 42.76% H, 3.57%, N, 7.18%.

[2] = system: diabetic complications such as diabetic cataracts, neuropathy, nephropathy and retinopathy; conditions: literature report (U.S. Pat. No. 3,821,383); cited from earlier work
[3] = system: aldose reductase; conditions: literature report; cited from earlier work
[4] = target: T1, aldose reductase (Bos taurus, UniProt P16116); experiment: in vitro aldose reductase inhibition (modified Hayman and Kinoshita procedure); assay type: biochemical, bovine (lens); conditions: for inhibition at 10 µM: read-out: % Inhibition at Different Molar Concentrations (in vitro), 10^-5; for inhibition at 1 µM: 10^-6 molar, read-out: % Inhibition at Different Molar Concentrations (in vitro), 10^-6; for inhibition at 0.1 µM: 10^-7 molar, read-out: % Inhibition at Different Molar Concentrations (in vitro), 10^-7
T1 construct: preparation of the enzyme from bovine lens; from tissue; host or cells: bovine lens
From the text: In the present case the procedure of Hayman and Kinoshita is modified in that the final chromatography step is omitted in the preparation of the enzyme from bovine lens.

[5] = 10^-5 molar, enzyme from bovine lens

inhibition at 10 µM [4, 5] [%] | inhibition at 1 µM ([4]; enzyme from bovine lens) [%] | inhibition at 0.1 µM ([4]; enzyme from bovine lens) [%] | Compound | further results
– | – | – | CN(CC(=O)[O-])C(=O)c1cn(CC(=O)[O-])c2c(=O)ccccc2c1=O.[Na+].[Na+] | stability in the presence of acid [1]: decomposed in the presence of acid
– | – | – | O=C(O)CN1C(=O)c2cccc3cccc(c23)C1=O [1,3-Dioxo-1H-benz[de]isoquinoline-2(3H)-acetic acid] | usefulness for the treatment of diabetic complications (in words) [2]: useful for the treatment of diabetic complications such as diabetic cataracts, neuropathy, nephropathy and retinopathy; aldose reductase inhibition (in words) [3]: effective inhibitor of aldose reductase
– | – | – | CN(CC(=O)[O-])C(=O)c1cn(CC(=O)[O-])c2c(=O)ccccc2c1=O.[Na+].[Na+] [Disodium Salt] | inhibition at 10 µM [4]: 22%
84 | 53 | 16 | O=C(O)Cn1cc(C(=O)O)c(=O)c2cc(O)ccc(=O)c21 [Example 4 (R^1 COOH, R^2 6-OH), 3-carboxy-4,9-dihydro-6-hydroxy-4,9-dioxo-1H-cyclohepta[b]pyridine-1-acetic acid] | –
81 | 47 | 14 | O=C(O)Cn1cc(C(=O)O)c(=O)c2cccc(Br)c(=O)c21 [Example 4 (R^1 COOH, R^2 8-Br), 8-bromo-3-carboxy-4,9-dihydro-4,9-dioxo-1H-cyclohepta[b]pyridine-1-acetic acid] | –
89 | 65 | 19 | O=C(O)Cn1cc(C(=O)O)c(=O)c2ccccc(=O)c21 [Example 4 (R^1 COOH, R^2 H), 3-Carboxy-4,9-dihydro-4,9-dioxo-1H-cyclohepta[b]pyridine-1-acetic Acid] | –
– | – | – | O=C1NC(=O)[C@@]2(CCOc3ccc(F)cc32)N1 [sorbinil, (S)-6-Fluoro-2,3-dihydrospiro(4H-1-benzopyran-4,4'-imidazolidine)-2',5'-dione] | aldose reductase inhibition (in words) [3]: aldose reductase inhibiting properties
